# Tested on: HCV pseudoparticles (genotype 1a HCV E1 and E2 envelope, H77C isolate)
# Test: microbe, parasite or virus in culture
# Format: cell-based
# Conditions: Hepatitis C virus, Huh-7, 48 h, HCV pseudoparticle infection of Huh7 cells, luciferase 2 days after infection; average of duplicates
row,Structure (SMILES),EC50
1,COC(=O)[C@H](CNC(=O)C(=O)NCc1c(F)cccc1F)NC(=O)c1ccc(Nc2nc(NC3(c4ccc(Cl)cc4)CC3)nc(OCC(F)(F)F)n2)cc1 [Compound 1135],1.92 nM
2,COc1cc(NC(=O)C(=O)NC[C@H](NC(=O)c2ccc(Nc3nc(NC4(c5ccc(Cl)cc5)CC4)nc(OCC(F)(F)F)n3)cc2)C(=O)O)ccn1 [Compound 1348],0.5 nM
3,CC(C)(CNC(=O)C(=O)Nc1ccc(-c2ccc(C(F)(F)F)cc2)cc1)CNC(=O)c1ccc(Nc2nc(NC3(c4ccc(Cl)cc4)CC3)nc(OCC(F)(F)F)n2)cc1 [Compound 1594],0.05 nM

# Same assay, conditions: Hepatitis C virus, Huh-7, 48 h, HCV pseudoparticles (genotype 1a, H77C) in Huh7 cells; average of duplicate; luciferase 2 days after infection
row,Structure (SMILES),EC50
1,COC(=O)[C@H](CCNC(=O)C(=O)Nc1ccc(-n2cnc(Cl)c2Cl)cc1)NC(=O)c1ccc(Nc2nc(NC3(c4ccc(Cl)cc4)CC3)nc(OCC(F)(F)F)n2)cc1 [Compound 3124],18.2 nM

# Same assay, conditions: Hepatitis C virus, Huh-7, 48 h, HCV pseudoparticles, Huh7 cells, luciferase 2 days after infection; average of duplicates
row,Structure (SMILES),EC50
1,COC(=O)[C@H](CNC(=O)C(=O)Nc1cccc(Oc2cccnc2)c1)NC(=O)c1ccc(Nc2nc(NC3(c4ccc(Cl)cc4)CC3)nc(OCC(F)(F)F)n2)cc1 [Compound 3737],1.63 nM

# Same assay, conditions: Hepatitis C virus, Huh-7, 48 h, read-out: Activity (EC50 class), HCV pseudoparticle infection of Huh7 cells, luciferase 2 days after infection; EC50 expressed as class A/B
row,Structure (SMILES),EC50
1,COC(=O)[C@H](CCNC(=O)C(=O)NCC1OCCc2ccccc21)NC(=O)c1ccc(Nc2nc(NC3(c4ccc(Cl)cc4)CC3)nc(OCC(F)(F)F)n2)cc1 (stereo partly shown) [Compound 1320],0.01 to 10 nM
2,COC(=O)[C@H](CNC(=O)C(=O)NCc1c(F)cccc1F)NC(=O)c1ccc(Nc2nc(NC3(c4ccc(Cl)cc4)CC3)nc(OCC(F)(F)F)n2)cc1 [Compound 1135],0.01 to 10 nM
3,COc1cc(NC(=O)C(=O)NC[C@H](NC(=O)c2ccc(Nc3nc(NC4(c5ccc(Cl)cc5)CC4)nc(OCC(F)(F)F)n3)cc2)C(=O)O)ccn1 [Compound 1348],0.01 to 10 nM
4,COC(=O)[C@H](CCNC(=O)C(=O)Nc1ccncc1)NC(=O)c1ccc(Nc2nc(NC3(c4ccc(Cl)cc4)CC3)nc(OCC(F)(F)F)n2)cc1 [Compound 1236],0.01 to 10 nM
5,CC(C)CNC(=O)C(=O)NCC(C)(C)CNC(=O)c1ccc(Nc2nc(NC3(c4ccc(Cl)cc4)CC3)nc(OCC(F)(F)F)n2)cc1 [Compound 1551],0.01 to 10 nM
6,COC(=O)[C@H](CCNC(=O)C(=O)NC(C)(C)Cc1ccc(F)cc1)NC(=O)c1ccc(Nc2nc(NC3(c4ccc(Cl)cc4)CC3)nc(OCC(F)(F)F)n2)cc1 [Compound 1319],0.01 to 10 nM
7,CC(C)(CNC(=O)C(=O)Nc1ccc(-c2ccc(C(F)(F)F)cc2)cc1)CNC(=O)c1ccc(Nc2nc(NC3(c4ccc(Cl)cc4)CC3)nc(OCC(F)(F)F)n2)cc1 [Compound 1594],0.01 to 10 nM
8,CN1CCN(CC2(CNC(=O)C(=O)NCC[C@H](NC(=O)c3ccc(Nc4nc(NC5(c6ccc(Cl)cc6)CC5)nc(OCC(F)(F)F)n4)cc3)C(=O)O)CC2)CC1 [Compound 1432],0.01 to 10 nM
9,O=C(NCC[C@@H](NC(=O)c1ccc(Nc2nc(NC3(c4ccc(Cl)cc4)CC3)nc(OCC(F)(F)F)n2)cc1)C(=O)O)C(=O)Nc1ccccc1Cl [Compound 1534],0.01 to 10 nM
10,O=C(NCC[C@H](NC(=O)c1ccc(Nc2nc(NC3(c4ccc(Cl)cc4)CC3)nc(OCC(F)(F)F)n2)cc1)C(=O)O)C(=O)Nc1cn[nH]c1 [Compound 1266],0.01 to 10 nM
11,CC(C)(CNC(=O)C(=O)Nc1cc(F)c(F)c(F)c1)CNC(=O)c1ccc(Nc2nc(NC3(c4ccc(Cl)cc4)CC3)nc(OCC(F)(F)F)n2)cc1 [Compound 1558],0.01 to 10 nM
12,C[C@]12C3C1[C@H]3C[C@@H]2NC(=O)C(=O)NCC[C@H](NC(=O)c1ccc(Nc2nc(NC3(c4ccc(Cl)cc4)CC3)nc(OCC(F)(F)F)n2)cc1)C(=O)O (stereo partly shown) [Compound 1117],0.01 to 10 nM
13,O=C(NCC[C@H](NC(=O)c1ccc(Nc2nc(NC3(c4ccc(Cl)cc4)CC3)nc(OCC(F)(F)F)n2)cc1)C(=O)O)C(=O)Nc1cccc(C(F)(F)F)c1 [Compound 1271],0.01 to 10 nM
14,COC(=O)[C@H](CNC(=O)C(=O)NCc1ccc(F)cc1F)NC(=O)c1ccc(Nc2nc(NC3(c4ccc(Cl)cc4)CC3)nc(OCC(F)(F)F)n2)cc1 [Compound 1134],0.01 to 10 nM
15,Cn1nccc1NC(=O)C(=O)NCC[C@H](NC(=O)c1ccc(Nc2nc(NC3(c4ccc(Cl)cc4)CC3)nc(OCC(F)(F)F)n2)cc1)C(=O)O [Compound 1281],0.01 to 10 nM
16,O=C(NCC1CC1)C(=O)NC1CCCC1CNC(=O)c1ccc(Nc2nc(NC3(c4ccc(Cl)cc4)CC3)nc(OCC(F)(F)F)n2)cc1 (stereo not shown) [Compound 1462],0.01 to 10 nM
17,CC(C)(CNC(=O)C(=O)Nc1ccc(CC(=O)N2CCCC2)cc1)CNC(=O)c1ccc(Nc2nc(NC3(c4ccc(Cl)cc4)CC3)nc(OCC(F)(F)F)n2)cc1 [Compound 1592],0.01 to 10 nM
18,COC(=O)[C@H](CNC(=O)C(=O)NCc1ccc(OC)cc1OC)NC(=O)c1ccc(Nc2nc(NC3(c4ccc(Cl)cc4)CC3)nc(OCC(F)(F)F)n2)cc1 [Compound 1137],0.01 to 10 nM
19,COC(=O)[C@H](CCNC(=O)C(=O)NCCn1cncn1)NC(=O)c1ccc(Nc2nc(NC3(c4ccc(Cl)cc4)CC3)nc(OCC(F)(F)F)n2)cc1 [Compound 1321],0.01 to 10 nM

# Same assay, conditions: Hepatitis C virus, Huh-7, 48 h, read-out: Activity (EC50 class), HCV pseudoparticles, Huh7 cells, luciferase 2 days after infection; average of duplicates
row,Structure (SMILES),EC50
1,CCCNc1ccc(NC(=O)C(=O)NCC[C@H](NC(=O)c2ccc(Nc3nc(NC4(c5ccc(Cl)cc5)CC4)nc(OCC(F)(F)F)n3)cc2)C(=O)O)cn1 [Compound 3657],0.01 to 10 nM
2,N#Cc1cccc(NC(=O)C(=O)NC[C@H](NC(=O)c2ccc(Nc3nc(NC4(c5ccc(Cl)cc5)CC4)nc(OCC(F)(F)F)n3)cc2)C(=O)Cl)c1 [Compound 3740],0.01 to 10 nM
3,O=C(NC[C@H](NC(=O)c1ccc(Nc2nc(NC3(c4ccc(Cl)cc4)CC3)nc(OCC(F)(F)F)n2)cc1)C(=O)O)C(=O)Nc1ccc(Oc2cccnc2)nc1 [Compound 3755],0.01 to 10 nM
4,COC(=O)[C@H](CNC(=O)C(=O)Nc1cccc(Oc2cccnc2)c1)NC(=O)c1ccc(Nc2nc(NC3(c4ccc(Cl)cc4)CC3)nc(OCC(F)(F)F)n2)cc1 [Compound 3737],0.01 to 10 nM
5,COC(=O)[C@H](CNC(=O)C(=O)Nc1cccc(C(N)=O)c1)NC(=O)c1ccc(Nc2nc(NC3(c4ccc(Cl)cc4)CC3)nc(OCC(F)(F)F)n2)cc1 [Compound 3689],0.01 to 10 nM
6,COC(=O)[C@H](CNC(=O)C(=O)Nc1cccc(S(=O)(=O)c2ccccc2)c1)NC(=O)c1ccc(Nc2nc(NC3(c4ccc(Cl)cc4)CC3)nc(OCC(F)(F)F)n2)cc1 [Compound 3701],0.01 to 10 nM
7,CC(C)(CNC(=O)C(=O)Nc1nc2c(O)cccc2s1)CNC(=O)c1ccc(Nc2nc(NC3(c4ccc(Cl)cc4)CC3)nc(OCC(F)(F)F)n2)cc1 [Compound 3819],0.01 to 10 nM
8,CC(C)(CNC(=O)C(=O)Nc1nc2cc(F)ccc2s1)CNC(=O)c1ccc(Nc2nc(NC3(c4ccc(Cl)cc4)CC3)nc(OCC(F)(F)F)n2)cc1 [Compound 3810],0.01 to 10 nM
9,NC(=O)CCc1cccc(NC(=O)C(=O)NCC[C@H](NC(=O)c2ccc(Nc3nc(NC4(c5ccc(Cl)cc5)CC4)nc(OCC(F)(F)F)n3)cc2)C(=O)O)c1 [Compound 3663],0.01 to 10 nM

# Same assay, conditions: Hepatitis C virus, Huh-7, read-out: Activity (EC50 class), HCV pseudoparticles (genotype 1a, H77C) in Huh7 cells; EC50 expressed as class A/B
row,Structure (SMILES),EC50
1,CC(C)(CNC(=O)C(=O)Nc1ccc(Cl)cc1C(N)=O)CNC(=O)c1ccc(Nc2nc(NC3(c4ccc(Cl)cc4)CC3)nc(OCC(F)(F)F)n2)cc1 [Compound 3110],0.01 to 10 nM
2,O=C(NCCCNC(=O)c1ccc(Nc2nc(NC3(c4ccc(Cl)cc4)CC3)nc(OCC(F)(F)F)n2)cc1)C(=O)Nc1ccc(F)cc1 [Compound 3360],0.01 to 10 nM
3,COC(=O)[C@H](CCNC(=O)C(=O)Nc1ccc(-n2cnc(Cl)c2Cl)cc1)NC(=O)c1ccc(Nc2nc(NC3(c4ccc(Cl)cc4)CC3)nc(OCC(F)(F)F)n2)cc1 [Compound 3124],0.01 to 10 nM
4,O=C(NCCCCNC(=O)c1ccc(Nc2nc(NC3(c4ccc(Cl)cc4)CC3)nc(OCC(F)(F)F)n2)cc1)C(=O)Nc1nccs1 [Compound 3399],0.01 to 10 nM
5,CC(C)(CNC(=O)C(=O)Nc1cccc(C(F)(F)F)c1)CNC(=O)c1ccc(Nc2nc(NC3(c4ccc(Cl)cc4)CC3)nc(OCC(F)(F)F)n2)cc1 [Compound 3019],0.01 to 10 nM
6,O=C(NCC[C@H](NC(=O)c1ccc(Nc2nc(NC3(c4ccc(Cl)cc4)CC3)nc(OCC(F)(F)F)n2)cc1)C(=O)O)C(=O)Nc1ccc(C2=CCC(N3CCOCC3)=N2)cc1 [Compound 3539],10 to 1000 nM
7,Cn1cnnc1-c1ccc(NC(=O)C(=O)NC[C@H](NC(=O)c2ccc(Nc3nc(NC4(c5ccc(Cl)cc5)CC4)nc(OCC(F)(F)F)n3)cc2)C(=O)O)cc1 [Compound 3283],0.01 to 10 nM
8,CC(C)(CNC(=O)c1ccc(Nc2nc(NC3(c4ccc(Cl)cc4)CC3)nc(OCC(F)(F)F)n2)cc1)NC(=O)C(=O)Nc1ccc(F)cc1 [Compound 3418],0.01 to 10 nM
9,COC(=O)/C(CCNC(=O)C(=O)NC1CCCC(S(=O)(=O)c2ccccc2)C1)=N\C(=O)c1ccc(Nc2nc(NC3(c4ccc(Cl)cc4)CC3)nc(OCC(F)(F)F)n2)cc1 (stereo not shown) [Compound 3584],10 to 1000 nM
10,COc1cc(NC(=O)C(=O)NCC(C)(C)CNC(=O)c2ccc(Nc3nc(NC4(c5ccc(Cl)cc5)CC4)nc(OCC(F)(F)F)n3)cc2)ccn1 [Compound 3251],0.01 to 10 nM
11,NC(=O)C(=O)NCCCCNC(=O)c1ccc(Nc2nc(NC3(c4ccc(Cl)cc4)CC3)nc(OCC(F)(F)F)n2)cc1 [Compound 3391],0.01 to 10 nM
12,COC(=O)[C@H](CNC(=O)C(=O)Nc1ccc(S(C)(=O)=O)cc1)NC(=O)c1ccc(Nc2nc(NC3(c4ccc(Cl)cc4)CC3)nc(OCC(F)(F)F)n2)cc1 [Compound 3105],0.01 to 10 nM
13,CCOCCOc1ccc(NC(=O)C(=O)NCC[C@H](NC(=O)c2ccc(Nc3nc(NC4(c5ccc(Cl)cc5)CC4)nc(OCC(F)(F)F)n3)cc2)C(=O)OC)cc1 [Compound 3309],0.01 to 10 nM
14,COC(=O)[C@H](CCNC(=O)C(=O)Nc1ccc(Cn2ccnc2C)cc1)NC(=O)c1ccc(Nc2nc(NC3(c4ccc(Cl)cc4)CC3)nc(OCC(F)(F)F)n2)cc1 [Compound 3321],10 to 1000 nM
15,CC(C)(CNC(=O)C(=O)Nc1ccccc1C1CC1)CNC(=O)c1ccc(Nc2nc(NC3(c4ccc(Cl)cc4)CC3)nc(OCC(F)(F)F)n2)cc1 [Compound 3076],0.01 to 10 nM
16,O=C(NCC[C@@H](NC(=O)c1ccc(Nc2nc(NC3(c4ccc(Cl)cc4)CC3)nc(OCC(F)(F)F)n2)cc1)C(=O)O)C(=O)Nc1cc(F)c(F)c(F)c1F [Compound 3051],0.01 to 10 nM
17,COC(=O)[C@H](CCNC(=O)C(=O)Nc1ccc(-c2csc(C)n2)cc1)NC(=O)c1ccc(Nc2nc(NC3(c4ccc(Cl)cc4)CC3)nc(OCC(F)(F)F)n2)cc1 [Compound 3307],0.01 to 10 nM
18,CC(C)(CNC(=O)C(=O)Nc1ccc(OC(F)(F)F)cc1)CNC(=O)c1ccc(Nc2nc(NC3(c4ccc(Cl)cc4)CC3)nc(OCC(F)(F)F)n2)cc1 [Compound 3145],0.01 to 10 nM
19,COC(=O)[C@H](CCNC(=O)C(=O)Nc1ccc(Oc2ccncc2)cc1)NC(=O)c1ccc(Nc2nc(NC3(c4ccc(Cl)cc4)CC3)nc(OCC(F)(F)F)n2)cc1 [Compound 3323],0.01 to 10 nM

# Reference: patent US8916702B2 (priority 2012, dated 2014)
